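In this assay, cells in 96-well plates receive the compound at five concentrations for 48 hours. Endpoints are linearly interpolated between the surrounding concentrations. Abbreviation: GI50, concentration required for 50% inhibition of growth.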 Active and inactive are the calls of the source. Rule as the data show it: active = GI50 up to about 1.1 µM and inactive = higher.
Tests used:
Experiment in all cases: DTP human tumour cell line panel, 48 h
M19-MEL = test system: M19-MEL
LXFL 529 = test system: LXFL 529
HOP-18 = test system: HOP-18
DLD-1 = test system: DLD-1
SNB-78 = test system: SNB-78
KM-20L2 = test system: KM-20L2
DMS-273 = test system: DMS-273
RXF 631 = test system: RXF 631
XF498 = test system: XF498

SMILES	GI50 (M19-MEL)	GI50 (LXFL 529)	GI50 (HOP-18)	GI50 (DLD-1)	GI50 (SNB-78)	GI50 (KM-20L2)	GI50 (DMS-273)	GI50 (RXF 631)	GI50 (XF498)
CCN(CC)CCCC(C)Nc1ccnc2ccc3nn(C)nc3c12 (stereo not given)	49 µM (inactive)	55.5 µM (inactive)	> 100 µM (inactive)	55 µM (inactive)	52.7 µM (inactive)	33 µM (inactive)	26.4 µM (inactive)		
CCOC(=O)COS(=O)(=O)C(F)(F)F	> 100 µM (inactive)	89.9 µM (inactive)	> 100 µM (inactive)	41.2 µM (inactive)	> 100 µM (inactive)	> 100 µM (inactive)	18.4 µM (inactive)	45.1 µM (inactive)	> 100 µM (inactive)
OC12c3ccccc3C1CCCCC2N1CCCC1 (stereo not given)	> 100 µM (inactive)	> 100 µM (inactive)	> 100 µM (inactive)		> 100 µM (inactive)	> 100 µM (inactive)	> 100 µM (inactive)		
CN(C)CC1CC/C(=C\c2ccc(Cl)c(Cl)c2)C1=O (stereo not given)	29.4 µM (inactive)	13.2 µM (inactive)	> 62.4 µM (inactive)	16 µM (inactive)	31.5 µM (inactive)	> 34.5 µM (inactive)	28.8 µM (inactive)		> 46.8 µM (inactive)
CCOc1ccc(NC(=O)C2=C(C)NC(C)=C(C(=O)Nc3ccc(OCC)cc3)C2c2ccc(O)c(OC)c2)cc1	> 100 µM (inactive)	67.3 µM (inactive)		96.2 µM (inactive)	44.1 µM (inactive)	> 100 µM (inactive)		53.5 µM (inactive)	18.5 µM (inactive)
O=C(/C=C/c1ccc(Cl)c(Cl)c1)c1ccc(F)cc1	18.2 µM (inactive)	14.6 µM (inactive)	16.9 µM (inactive)	14.4 µM (inactive)	20.7 µM (inactive)	16.5 µM (inactive)	12.5 µM (inactive)	50 µM (inactive)	
C=C(CO)CC(/C=C(\C)CC/C=C(\C)CCl)OC(C)=O (stereo not given)	> 100 µM (inactive)	> 100 µM (inactive)		> 100 µM (inactive)	> 100 µM (inactive)	> 100 µM (inactive)	> 100 µM (inactive)		> 100 µM (inactive)
CC(=O)OC1C(COC(N)=O)OC(n2c(-c3ccc(C)cc3)cc(-c3ccccc3)c(C#N)c2=O)C(OC(C)=O)C1OC(C)=O (stereo not given)	> 100 µM (inactive)	> 100 µM (inactive)	> 100 µM (inactive)	> 100 µM (inactive)	> 100 µM (inactive)	> 100 µM (inactive)	> 100 µM (inactive)	> 100 µM (inactive)	
C1CN2CCN3CCN4CCN1[PH]243	> 100 µM (inactive)	> 100 µM (inactive)	> 100 µM (inactive)	> 100 µM (inactive)	> 100 µM (inactive)	> 100 µM (inactive)	> 100 µM (inactive)		> 100 µM (inactive)
CN(C)CCNC(=O)c1cccc2nc3c(ccc4ccccc43)nc12	1.56 µM (inactive)	2.51 µM (inactive)	6.53 µM (inactive)	1.79 µM (inactive)	5.16 µM (inactive)	1.51 µM (inactive)	1.54 µM (inactive)	1.02 µM (active)	
CC1=C(C(=O)CC(=O)C(=O)Nc2ccccc2)Sc2ccccc2N1	> 100 µM (inactive)	> 100 µM (inactive)	78.3 µM (inactive)	> 100 µM (inactive)	> 100 µM (inactive)	> 100 µM (inactive)		> 100 µM (inactive)	> 100 µM (inactive)
O=C1OCCC1(Cc1ccc(Cl)cc1)Cc1ccc(Cl)cc1	> 100 µM (inactive)	> 100 µM (inactive)		> 100 µM (inactive)	42.3 µM (inactive)				15.9 µM (inactive)
COC(=O)/C(=C\c1ccc(N(CCC#N)CCC#N)cc1)NC(=O)c1cc([N+](=O)[O-])ccc1Cl	> 100 µM (inactive)	> 100 µM (inactive)	> 100 µM (inactive)	> 100 µM (inactive)	> 100 µM (inactive)	> 100 µM (inactive)	> 100 µM (inactive)		
Cc1nc2ccccc2c(=O)n1/N=C(\N=N\c1ccc(Cl)cc1)c1ccc(N(C)C)cc1	> 100 µM (inactive)	47.8 µM (inactive)	46 µM (inactive)	71.4 µM (inactive)		> 100 µM (inactive)	60.1 µM (inactive)		14.6 µM (inactive)
Nc1c(C(=O)Nc2ccccc2)[n+]([O-])c2ccccc2[n+]1[O-]	15 µM (inactive)	14.4 µM (inactive)	13.5 µM (inactive)	15.6 µM (inactive)	16.9 µM (inactive)	17.7 µM (inactive)	20.6 µM (inactive)		16.6 µM (inactive)
O=C(Cn1ccnc1[N+](=O)[O-])NCc1ccc(F)cc1	> 100 µM (inactive)	> 100 µM (inactive)	> 100 µM (inactive)			> 100 µM (inactive)	> 100 µM (inactive)	> 100 µM (inactive)	> 100 µM (inactive)
Cc1cc(N(CCC#N)CCC#N)ccc1/C=C(/NC(=O)/C=C/c1ccccc1)C(N)=O	> 100 µM (inactive)	> 100 µM (inactive)		> 100 µM (inactive)	97.1 µM (inactive)	> 100 µM (inactive)	> 100 µM (inactive)		39.7 µM (inactive)
CCCCCCNC(=O)CCN(C(=O)O)S(=O)(=O)c1ccc(NC(=O)c2ccccc2)cc1	> 49.3 µM (inactive)	> 95.9 µM (inactive)	> 100 µM (inactive)	19.1 µM (inactive)	> 100 µM (inactive)	> 100 µM (inactive)	> 41 µM (inactive)		> 100 µM (inactive)
CC1=NN(C(=O)Nc2ccc(Cl)cc2)C(=O)C2CCC(=O)N12 (stereo not given)	> 100 µM (inactive)	2.65 µM (inactive)		> 100 µM (inactive)	> 100 µM (inactive)	4.38 µM (inactive)	47.3 µM (inactive)		> 100 µM (inactive)
C=CC(=O)Nc1ccccc1CC(c1c[nH]c2ccccc12)c1c[nH]c2ccccc12	15.6 µM (inactive)	16.1 µM (inactive)			16.3 µM (inactive)		17.7 µM (inactive)	16.7 µM (inactive)	21.1 µM (inactive)
CC(=O)OC1C2CCC1C1C2C2(Cl)C(Cl)=C(Cl)C1(Cl)C2(Cl)Cl (stereo not given)	13.3 µM (inactive)	12.5 µM (inactive)	18.9 µM (inactive)	15.1 µM (inactive)	17.4 µM (inactive)	10.1 µM (inactive)	12.2 µM (inactive)		11 µM (inactive)
Cc1cc2c(cc1C)[n+]([O-])c(C(=O)CC(=O)C(=O)Nc1c(C(C)C)cccc1C(C)C)c(C)[n+]2[O-]	> 100 µM (inactive)	> 100 µM (inactive)	> 100 µM (inactive)		> 100 µM (inactive)	> 100 µM (inactive)	> 100 µM (inactive)		> 100 µM (inactive)
Clc1ccc(CCN2CCOCC2)c(Cl)c1	> 100 µM (inactive)		> 100 µM (inactive)	> 100 µM (inactive)	> 100 µM (inactive)	> 100 µM (inactive)		> 100 µM (inactive)	> 100 µM (inactive)
CN(C)CCCNC(=O)c1cccc2nc3ccccc3nc12	6.58 µM (inactive)	20.2 µM (inactive)	> 42.5 µM (inactive)	> 41.6 µM (inactive)	14.3 µM (inactive)	25.1 µM (inactive)	9.91 µM (inactive)	32.6 µM (inactive)	1.14 µM (inactive)
CP1(=O)CCCCC1	> 100 µM (inactive)	> 100 µM (inactive)	> 100 µM (inactive)	> 100 µM (inactive)	> 100 µM (inactive)	> 100 µM (inactive)	> 100 µM (inactive)		> 100 µM (inactive)
OCC(O)C(O)C(O)c1nn(-c2ccccc2)c2nc3cc(Cl)c(Cl)cc3nc12 (stereo not given)	49.1 µM (inactive)	57.5 µM (inactive)	67.5 µM (inactive)	30.1 µM (inactive)	54.1 µM (inactive)	37.2 µM (inactive)	39.8 µM (inactive)		23.4 µM (inactive)

— ChEMBL document CHEMBL1201862, “PubChem BioAssay data set” (2004)
